Laboratory results reported in patent US8906908B2, “Hydroxybupropion analogues for treating drug dependence” (priority 2010, dated 2014).
Read-outs that look alike come from different tables or passages of the source.

Experiments:
[1] = target: T1, muscle-type nAChR (α1β1γδ- or α1*-nAChR) (Homo sapiens, UniProt P02708+P07510+P11230+Q07001); assay: 86Rb+ efflux nAChR functional assay, TE671/RD cells; format: cell-based; settings: parentheses = S.E.M. as multiplication/division factor
T1 construct: Cells of the TE671/RD line naturally expresses muscle-type nAChR; endogenous in cells; host or cells: TE671/RD cells
Text: (§1) Cell Lines and Culture: Human embryonic kidney (HEK-293) cells stably expressing human DAT, NET or SERT were maintained as previously described in Eshleman, A. J.; Carmolli, M.; Cumbay, M.; Martens, C. R.; Neve, K. A.; Janowsky, A., J. Pharmacol. Exp. Ther. 1999, 289, (2), 877-885. Use was made of several human cell lines that naturally or heterologously express specific, functional, human nAChR subtypes. Cells of the TE671/RD line naturally expresses muscle-type nAChR (a1β1γδ- or α1*-nAChR), and SH-SY5Y neuroblastoma cells naturally expresses autonomic α3β4*-nAChRs (containing α3, β4, probably α5, and sometimes β2 subunits). Different clones of SH-EP1 epithelial cell lines have been engineered to heterologously express either α4β2-nAChR, which are thought to be the most abundant, high affinity nicotine-binding nAChR in mammalian brain, or α4β4-nAChR, another possible brain nAChR subtype (SH-EP1-hα4β2 or α4β4 cells, respectively). These cells were maintained as low passage number (1-26 from our frozen stocks) cultures to ensure stable expression of native or heterologously-expressed nAChR as previously described (see Lukas, R. J.; Fryer, J. D.; Eaton, J. B.; L., G. C., Some methods for studies of nicotinic acetylcholine receptor pharmacology, in Nicotinic receptors and the Nervous System, Levine, E. D., Ed. CRC Press: Boca Raton, 2002; pp 3-27, incorporated herein by reference in its entirety). Cells were passaged once weekly by splitting just-confluent cultures 1/300 (TE671/RD), 1/5 (SH-SY5Y), or 1/20 (transfected SH-EP1) in serum-supplemented medium to maintain log-phase growth.
After cells had adhered (generally overnight, but no sooner than 4 h later), the medium was removed and replaced with 250 μL per well of complete medium supplemented with ˜350,000 cpm of ^86Rb^+ (PerkinElmer Life and Analytical Sciences, Boston, Mass.) and counted at 40% efficiency using Cerenkov counting (TriCarb 1900 liquid scintillation analyzer[…]; PerkinElmer Life Sciences).
After at least 4 h and typically overnight, ^86Rb^+ efflux was measured using the “flip-plate” technique. See Lukas, R. J.; Fryer, J. D.; Eaton, J. B.; L., G. C., Some methods for studies of nicotinic acetylcholine receptor pharmacology, in Nicotinic receptors and the Nervous System, Levine, E. D., Ed. CRC Press: Boca Raton, 2002; pp 3-27, incorporated herein by reference in its entirety). Briefly, after aspiration of the bulk of ^86Rb^+ loading medium from each well of the “cell plate,” each well containing cells was rinsed 3× with 2 mL of fresh ^86Rb^+ efflux buffer (130 mM NaCl, 5.4 mM KCl, 2 mM CaCl2, 5 mM glucose, 50 mM HEPES, pH 7.4) to remove extracellular ^86Rb^+. Following removal of residual rinse buffer by aspiration, the flip-plate technique was used again to simultaneously introduce 1.5 mL of fresh efflux buffer containing drugs of choice at indicated final concentrations from a 24-well “efflux/drug plate” into the wells of the cell plate. After a 5 min incubation, the solution was “flipped” back into the efflux/drug plate, and any remaining buffer in the cell plate was removed by aspiration. Cells remaining in the cell plate were lysed and suspended by addition of 1.5 mL of 0.1 M NaOH, 0.1% sodium dodecyl sulfate to each well.
Similarly, the sum of ^86Rb^+ in cell plates and efflux/drug plates also determined the efficiency of ^86Rb^+ loading (the percentage of applied ^86Rb^+ actually loaded into cells).
Specific efflux was then taken as the difference in control samples between total and non-specific ^86Rb^+ efflux. Any intrinsic agonist activity of test drugs was ascertained using samples containing test drug only at different concentrations and was normalized, after subtraction of non-specific efflux, to specific efflux in test drug-free, control samples.

[2] = test system: Male Institute of Cancer Research (ICR) mice; assay: Tail-flick test, blockade of nicotine-induced antinociception; format: in vivo; settings: for ED50: Mus musculus, 5 min, read-out: AD50 Tail-flick
Text: (§2) Animals: Male Institute of Cancer Research (ICR) mice (weighing 20-25 g) obtained from Harlan (Indianapolis, Ind.) were used throughout the study. Animals were housed in an Association for Assessment and Accreditation of Laboratory Animal Care-approved facility, were placed in groups of six, and had free access to food and water. Studies were approved by the Institutional Animal Care and Use Committee of Virginia Commonwealth University.
Tail-Flick Test: Antinociception for pain mediated at the spinal level was assessed by the tail-flick method of D'Amour, F. E.; Smith, D. L., J. Pharmacol. Exp. Ther. 1941, 72, 74-79, incorporated herein by reference in its entirety. In brief, mice were lightly restrained while a radiant heat source was shone onto the upper portion of the tail. To minimize tissue damage, a maximum latency of 10 s was imposed. Latency to remove the tail from the heat source was recorded for each animal. […] Antinociceptive response was calculated as the percentage of maximum possible effect (% MPE), where % MPE=[(test control)/(10 control)]×100.

[3] = target: T2, human DA transporters [(h)DAT] (Homo sapiens, UniProt Q01959); assay: Inhibition of [3H]dopamine uptake into HEK293 cells stably expressing hDAT; format: cell-based
T2 construct: expressed in transfected cells; host or cells: HEK-293
Text: as §1
See, for example, Damaj, M. I.; Carroll, F. I.; Eaton, J. B.; Navarro, H. A.; Blough, B. E.; Mirza, S.; Lukas, R. J.; Martin, B. R., Mol. Pharmacol. 2004, 66, (3), 675-682 and Eshleman, A. J.; Carmolli, M.; Cumbay, M.; Martens, C. R.; Neve, K. A.; Janowsky, A., J. Pharmacol. Exp. Ther. 1999, 289, (2), 877-885, both incorporated by reference herein in their entireties.

[4] = test system: Male Institute of Cancer Research (ICR) mice; assay: Body temperature, antagonism of nicotine-induced hypothermia; format: in vivo; settings: pretreatment 15 min before nicotine 2.5 mg/kg s.c., tested 30 min after nicotine; for ED50: Mus musculus, 0.5 h, read-out: AD50 Hypothermia
Protocol: as §2
Body Temperature: Rectal temperature was measured by a thermistor probe (inserted 24 mm) and digital thermometer (YSI Inc., Yellow Springs, Ohio). Readings were taken just before and 30 min after subcutaneous injection of either saline or 2.5 mg/kg nicotine. The difference in rectal temperature before and after treatment was calculated for each mouse. The ambient temperature of the laboratory varied from 21 to 24° C. from day to day. […] The animals were then tested 30 min after administration of a subcutaneous dose of 2.5 mg/kg nicotine.

[5] = EC80-EC90 carbamylcholine, read-out: nAChR inhibition IC50 α1*β1
[6] = nAChR inhibition IC50 α1*β1, EC80-EC90 carbamylcholine
[7] = mice, pretreatment 15 min before nicotine 2.5 mg/kg s.c., tested 5 min after nicotine
[8] = HEK293-hDAT, mean ± standard error of three independent experiments, read-out: monoamine uptake inhibition IC50 [3H]DA

T2 sequence (Q01959 whole entry): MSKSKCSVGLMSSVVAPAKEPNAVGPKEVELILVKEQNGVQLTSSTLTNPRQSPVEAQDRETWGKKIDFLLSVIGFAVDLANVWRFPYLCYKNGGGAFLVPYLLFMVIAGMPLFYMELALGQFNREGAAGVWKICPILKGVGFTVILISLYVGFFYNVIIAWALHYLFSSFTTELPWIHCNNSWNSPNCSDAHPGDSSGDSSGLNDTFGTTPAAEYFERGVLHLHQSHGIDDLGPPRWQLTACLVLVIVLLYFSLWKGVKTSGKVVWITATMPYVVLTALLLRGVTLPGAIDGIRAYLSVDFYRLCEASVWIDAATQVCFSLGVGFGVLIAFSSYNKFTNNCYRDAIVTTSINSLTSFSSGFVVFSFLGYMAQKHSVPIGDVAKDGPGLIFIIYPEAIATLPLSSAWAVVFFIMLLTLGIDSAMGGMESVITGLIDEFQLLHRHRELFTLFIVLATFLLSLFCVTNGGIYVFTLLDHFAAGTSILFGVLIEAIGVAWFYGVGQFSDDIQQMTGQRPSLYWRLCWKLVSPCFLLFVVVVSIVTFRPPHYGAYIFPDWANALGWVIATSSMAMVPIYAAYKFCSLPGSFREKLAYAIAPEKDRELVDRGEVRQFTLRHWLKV
T1 sequence (P02708 21-457): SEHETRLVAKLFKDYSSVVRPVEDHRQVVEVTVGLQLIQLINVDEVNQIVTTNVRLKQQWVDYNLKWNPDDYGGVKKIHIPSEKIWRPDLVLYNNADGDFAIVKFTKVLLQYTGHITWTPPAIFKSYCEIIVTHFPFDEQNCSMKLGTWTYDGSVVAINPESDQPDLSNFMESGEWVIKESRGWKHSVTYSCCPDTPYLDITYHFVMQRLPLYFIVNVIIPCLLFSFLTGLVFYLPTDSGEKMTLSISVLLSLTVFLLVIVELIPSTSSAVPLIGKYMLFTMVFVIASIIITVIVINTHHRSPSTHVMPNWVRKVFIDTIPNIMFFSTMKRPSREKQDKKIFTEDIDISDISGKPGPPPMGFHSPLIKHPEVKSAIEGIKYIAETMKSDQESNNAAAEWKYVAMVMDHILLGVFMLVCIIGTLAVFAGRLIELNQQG
T1 sequence (P11230 24-501): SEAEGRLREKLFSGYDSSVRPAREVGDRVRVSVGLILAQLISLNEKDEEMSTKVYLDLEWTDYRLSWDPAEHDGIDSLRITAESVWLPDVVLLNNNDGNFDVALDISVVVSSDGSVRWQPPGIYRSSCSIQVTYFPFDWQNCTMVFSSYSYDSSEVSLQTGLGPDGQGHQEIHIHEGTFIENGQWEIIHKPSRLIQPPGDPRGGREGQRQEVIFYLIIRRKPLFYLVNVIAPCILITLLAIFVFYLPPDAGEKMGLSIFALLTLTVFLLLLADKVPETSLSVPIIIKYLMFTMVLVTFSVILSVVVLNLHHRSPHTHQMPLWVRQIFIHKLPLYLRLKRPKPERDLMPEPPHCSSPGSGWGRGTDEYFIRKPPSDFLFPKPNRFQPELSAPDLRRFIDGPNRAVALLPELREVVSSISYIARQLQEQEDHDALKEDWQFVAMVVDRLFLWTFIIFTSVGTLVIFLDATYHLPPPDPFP
T1 sequence (P07510 23-517): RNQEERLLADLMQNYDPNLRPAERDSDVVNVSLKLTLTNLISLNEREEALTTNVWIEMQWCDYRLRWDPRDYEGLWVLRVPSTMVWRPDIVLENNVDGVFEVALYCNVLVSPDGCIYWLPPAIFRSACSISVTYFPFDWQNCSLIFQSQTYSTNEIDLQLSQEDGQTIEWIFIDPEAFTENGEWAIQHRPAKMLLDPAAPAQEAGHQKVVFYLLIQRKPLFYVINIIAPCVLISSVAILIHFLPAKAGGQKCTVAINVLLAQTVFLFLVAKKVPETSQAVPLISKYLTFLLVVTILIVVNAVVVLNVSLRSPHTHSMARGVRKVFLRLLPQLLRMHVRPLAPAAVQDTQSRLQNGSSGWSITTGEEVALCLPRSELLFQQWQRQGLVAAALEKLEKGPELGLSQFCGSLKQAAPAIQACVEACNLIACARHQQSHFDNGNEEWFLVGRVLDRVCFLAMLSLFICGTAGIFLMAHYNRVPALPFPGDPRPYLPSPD
T1 sequence (Q07001 22-517): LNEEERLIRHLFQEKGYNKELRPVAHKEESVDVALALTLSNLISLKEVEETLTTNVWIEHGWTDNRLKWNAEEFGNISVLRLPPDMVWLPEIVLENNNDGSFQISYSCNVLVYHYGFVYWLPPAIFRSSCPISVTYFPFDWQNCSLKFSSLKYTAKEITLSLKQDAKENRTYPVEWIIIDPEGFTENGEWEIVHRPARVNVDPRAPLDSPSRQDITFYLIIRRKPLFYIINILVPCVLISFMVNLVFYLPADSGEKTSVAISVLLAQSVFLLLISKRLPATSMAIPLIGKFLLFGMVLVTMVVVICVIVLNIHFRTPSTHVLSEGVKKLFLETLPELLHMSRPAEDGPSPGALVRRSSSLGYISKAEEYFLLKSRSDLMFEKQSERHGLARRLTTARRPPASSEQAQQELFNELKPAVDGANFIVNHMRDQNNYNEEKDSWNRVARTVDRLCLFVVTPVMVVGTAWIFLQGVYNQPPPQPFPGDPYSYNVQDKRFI

| SMILES | IC50 [1, 5] [µM] | IC50 [1, 6] [µM] | ED50 [2, 7] [mg/kg] | IC50 [3, 8] [µM] | ED50 [4] [mg/kg] | IC50 [3] [µM] | selectivity for inhibition of DA uptake over α4β2-nAChR [3] [fold] | AD50 Hypothermia [4] | AD50 Tail-flick [2, 7] [mg/kg] | activity in the tail-flick assay relative to (2S,3S)-4a ([2]; higher activity than (2S,3S)-4a) [fold] |
| --- | --- | --- | --- | --- | --- | --- | --- | --- | --- | --- |
| C[C@@H]1NC(C)(C)CO[C@@]1(O)c1cccc(Br)c1 [Compound 4d, (2S,3S)-2-(3-Bromophenyl)-3,5,5-trimethylmorpholin-2-ol] | 18 | 5.9 to 19 | 0.16 | 3.34 ± 0.68 | 1.7 |  |  |  |  |  |
| CC[C@@H]1NC(C)(C)CO[C@@]1(O)c1cccc(Cl)c1 [Compound 4s, (2S,3S)-2-(3-Chlorophenyl)-3-ethyl-5,5-dimethylmorpholin-2-ol] | 14 |  | 0.004 | 0.204 ± 0.023 |  |  |  |  |  |  |
| CC1NC(C)(C)COC1(O)c1ccc(Cl)c(Cl)c1 (racemic) [Compound 4n, 2-(3,4-Dichlorophenyl)-3,5,5-trimethylmorpholin-2-ol] |  | 7.2 | 8.8 |  |  | 0.07 | > 285 | IA (IA: AD50 > 15 mg/kg) |  |  |
| Cc1ccc([C@]2(O)OCC(C)(C)N[C@H]2C)cc1 [Compound 4j, (2S,3S)-3,5,5-Trimethyl-2-(4-methylphenyl)morpholin-2-ol] | 20 |  | 0.004 | 0.832 ± 0.26 |  |  |  | IA (IA: AD50 > 15 mg/kg) |  |  |
| Cc1cccc([C@]2(O)OCC(C)(C)N[C@H]2C)c1 [Compound 4e, (2S,3S)-2-(m-Tolyl)-3,5,5-trimethylmorpholin-2-ol] | 33 | > 33 | 0.054 | 2.6 ± 0.4 | 2.3 to 7 |  |  |  |  |  |
| C[C@@H]1N(C)C(C)(C)CO[C@@]1(O)c1ccc(Cl)cc1 [Compound 4v, (2S,3S)-2-(4-Chlorophenyl)-3,4,5,5-tetramethylmorpholin-2-ol] | 43 | > 33 | 0.32 | 2.87 ± 0.82 |  |  |  | IA (IA: AD50 > 15 mg/kg) |  |  |
| C[C@@H]1N(C)C(C)(C)CO[C@@]1(O)c1cccc(Cl)c1 [Compound 4u, (2S,3S)-2-(3-Chlorophenyl)-3,4,5,5-tetramethylmorpholin-2-ol] | 57 | > 33 | 0.016 | 3.4 ± 0.6 |  |  |  | IA (IA: AD50 > 15 mg/kg) |  |  |
| C[C@@H]1NC(C)(C)CO[C@@]1(O)c1ccc(F)cc1 [Compound 4h, (2S,3S)-2-(4-Fluorophenyl)-3,5,5-trimethylmorpholin-2-ol] | 69 |  | 0.012 to 0.013 | 4.2 ± 0.7 |  |  |  |  |  |  |
| C[C@@H]1NC(C)(C)CO[C@@]1(O)c1cc(F)cc(F)c1 [Compound 4o, (2S,3S)-2-(3,5-Difluorophenyl)-3,5,5-trimethylmorpholin-2-ol] | 23 |  | 0.0056 | 1.02 ± 0.19 |  |  |  | IA (IA: AD50 > 15 mg/kg) | ~0.006 |  |
| C[C@@H]1NC(C)(C)CO[C@@]1(O)c1cccc([N+](=O)[O-])c1 [Compound 4g, (2S,3S)-2-(3-Nitrophenyl)-3,5,5-trimethylmorpholin-2-ol] | 96 |  | 4.9 | 12 |  |  |  |  |  |  |
| C[C@@H]1NC(C)(C)CO[C@@]1(O)c1ccc(F)c(F)c1 [Compound 4m, (2S,3S)-2-(3,4-Difluorophenyl)-3,5,5-trimethylmorpholin-2-ol] | 36 |  | 0.006 | 2.14 ± 0.18 |  |  |  | IA (IA: AD50 > 15 mg/kg) |  |  |
| C[C@@H]1NC(C)(C)CO[C@@]1(O)c1ccc(Cl)cc1 [Compound 4i, (2S,3S)-2-(4-Chlorophenyl)-3,5,5-trimethylmorpholin-2-ol] | 19 |  | 0.019 | 0.285 |  |  |  | IA (IA: AD50 > 15 mg/kg) |  |  |
| COc1cccc([C@]2(O)OCC(C)(C)N[C@H]2C)c1 [Compound 4f, (2S,3S)-2-(3-Methoxyphenyl)-3,5,5-trimethylmorpholin-2-ol] | 49 |  | 5.85 | 16 |  |  |  | IA (IA: AD50 > 15 mg/kg) |  |  |
| C[C@@H]1NC(C)(C)CO[C@@]1(O)c1cccc2ccccc12 [Compound 4q, (2S,3S)-2-(Naphthalen-1-yl)-3,5,5-trimethylmorpholin-2-ol] | 6.6 |  | 0.034 | 10 |  |  |  | IA (IA: AD50 > 15 mg/kg) |  | ~5 |
| C[C@@H]1NC(C)(C)CO[C@@]1(O)c1ccc(-c2ccccc2)cc1 [Compound 4l, (2S,3S)-2-Biphenyl-4-yl-3,5,5-trimethylmorpholin-2-ol] | 5.9 | 5.9 to 19 | 0.021 |  |  | > 10 |  | IA (IA: AD50 > 15 mg/kg) |  |  |
| COc1ccc([C@]2(O)OCC(C)(C)N[C@H]2C)cc1 [Compound 4k, (2S,3S)-2-(4-Methoxyphenyl)-3,5,5-trimethylmorpholin-2-ol] | 25 |  | 0.019 | > 10 |  |  |  | IA (IA: AD50 > 15 mg/kg) |  |  |
| C[C@@H]1NC(C)(C)CO[C@@]1(O)c1cccc(F)c1 [Compound 4c, (2S,3S)-2-(3-Fluorophenyl)-3,5,5-trimethylmorpholin-2-ol] |  | > 100 | 0.012 to 0.013 | 1.38 ± 0.36 | 2.3 to 7 |  |  |  |  |  |
